# System: PIP tumor and PC3 tumor
# Test: Biodistribution of 125I labeled compounds 17, 18, 26 and 27 in tumor bearing nude mice
# Type: in vivo
# Details: for Biodistribution: Bladder* / Biodistribution: Stomach* / Biodistribution: large intestine* / Biodistribution: small intestine*: organ with content; for PIP/blood / PIP/muscle: ratio
# Method: Radioiodination and Purification: 100 μg of either precursor 13, 14, 22 or 23 were dissolved in 100 μL EtOH; 22 μL Na^125I (1033-1118 μCi in 0.1 N NaOH), 100 μL 1N HCl and 100 μL 3% H2O2 were added. After 15 minutes at room temperature, the reaction was stopped by adding 150 μL sat. NaHSO3. The reaction mixture was slowly added to 1.5 mL sat. NaHCO3. Vial was rinsed with 1000 μL EtOH and mixture was diluted further to 10 mL mL water. The active sample was transferred onto an activated C4 mini column. The mixture was pushed through, washed twice with 3 mL water and the product was eluted with 1 mL ACN. Added 100 μL DMSO. The mixture was concentrated to ˜100 μL and purified by HPLC (Agilent Eclipse XCD C18 150×4.6 mm, 5 μm; 4 mL/min, gradient (ACN and water; 0-1 min (20/80), 1-16 min (20/80-100/0), 16-16.5 min (100/0-20/80), 16.5-20 min 20/80) (collected every minute). The sample was blown to dryness under argon, re-dissolved in 500 μL CH2Cl2 and 1 mL TFA was added at room temperature. After 1 hr the solution was blown to dryness and activity taken into 1 mL EtOH (10 μL saturated ascorbic acid/EtOH was added). Isolated activities for [^125I]17, 18, 26, and 27 were 197, 189, 600 and 197 μCi respectively. A representative picture of HPLC profiles (FIG. 3) for radiolabeled protected (intermediate), cold standard and radioactive trace of final compound is shown for [^125I]26.
# For iv injection 150 μL of labeled solution was diluted with saline to 3.75 mL. Mice were injected with 2˜3 μCi of [^125I]18, 27, 26, and 18 in 0.15 mL saline. Injected radioactivity was 2 to 3 μCi.
# Biodistribution study of [^125I]18, 27, 26, and 18 in tumor bearing nude mice were evaluated for their ability to localization of PSMA positive tumor (Tables 5, 6, 7 and 8). It was observed that [^125I]26 and [^125I] […] These new agents are valuable for radionuclide therapy, when labeled with beta or alpha-emitting isotopes; but these agents will also be useful as diagnostic agents when labeled with gamma-emitting isotopes.
structure (smiles),measurement,setting,value
O=C(O)CC[C@H](NC(=O)N[C@@H](CCCCNC(=O)[C@H](Cc1ccccc1)NC(=O)[C@H](CCC(=O)O)NC(=O)c1ccc([125I])cc1)C(=O)O)C(=O)O [[^125I]17],Biodistribution: Blood,1 h,0.45 ± 0.11 % ID/g
same,Biodistribution: Bone,1 h,0.16 ± 0.02 % ID/g
same,Biodistribution: Heart,1 h,0.29 ± 0.04 % ID/g
same,Biodistribution: Kidney,1 h,41.44 ± 5.10 % ID/g
same,Biodistribution: Liver,1 h,2.94 ± 2.12 % ID/g
same,Biodistribution: Lung,1 h,1.15 ± 1.27 % ID/g
same,Biodistribution: Muscle,1 h,0.43 ± 0.24 % ID/g
same,Biodistribution: PC3 tumor,1 h,1.70 ± 1.33 % ID/g
same,Biodistribution: PIP tumor,1 h,10.72 ± 2.98 % ID/g
same,Biodistribution: Pancreas,1 h,0.55 ± 0.64 % ID/g
same,Biodistribution: Skin,1 h,0.57 ± 0.24 % ID/g
same,Biodistribution: Spleen,1 h,3.25 ± 1.52 % ID/g
same,Biodistribution: gland,1 h,0.81 ± 0.18 % ID/g
same,Biodistribution: thyroid,1 h,3.57 ± 0.75 % ID/g
same,Biodistribution: Bladder*,1 h,204.72 ± 108.11 % ID/g
same,Biodistribution: Stomach*,1 h,0.18 ± 0.05 % ID/g
same,Biodistribution: large intestine*,1 h,2.10 ± 1.64 % ID/g
same,Biodistribution: small intestine*,1 h,3.22 ± 1.64 % ID/g
same,PIP/blood,1 h,23.69 ± 2.07
same,PIP/muscle,1 h,27.52 ± 7.80
same,Biodistribution: Blood,4 h,0.09 ± 0.03 % ID/g
same,Biodistribution: Bone,4 h,0.03 ± 0.02 % ID/g
same,Biodistribution: Heart,4 h,0.11 ± 0.07 % ID/g
same,Biodistribution: Kidney,4 h,25.41 ± 7.57 % ID/g
same,Biodistribution: Liver,4 h,0.48 ± 0.53 % ID/g
same,Biodistribution: Lung,4 h,0.19 ± 0.13 % ID/g
same,Biodistribution: Muscle,4 h,0.25 ± 0.44 % ID/g
same,Biodistribution: PC3 tumor,4 h,0.28 ± 0.10 % ID/g
same,Biodistribution: PIP tumor,4 h,5.17 ± 2.02 % ID/g
same,Biodistribution: Pancreas,4 h,0.22 ± 0.25 % ID/g
same,Biodistribution: Skin,4 h,0.11 ± 0.04 % ID/g
same,Biodistribution: Spleen,4 h,0.46 ± 0.27 % ID/g
same,Biodistribution: gland,4 h,0.19 ± 0.05 % ID/g
same,Biodistribution: thyroid,4 h,7.16 ± 1.91 % ID/g
same,Biodistribution: Bladder*,4 h,68.75 ± 30.09 % ID/g
same,Biodistribution: Stomach*,4 h,0.11 ± 0.10 % ID/g
same,Biodistribution: large intestine*,4 h,0.86 ± 0.22 % ID/g
same,Biodistribution: small intestine*,4 h,0.23 ± 0.16 % ID/g
same,PIP/blood,4 h,62.95 ± 31.81
same,PIP/muscle,4 h,200.29 ± 221.74
same,"Washout in PIP tumors, kidneys and spleen compared to [125I]18 and [125I]27","mouse, in vivo",significantly faster washout
O=C(O)CC[C@H](NC(=O)N[C@@H](CCCCNC(=O)[C@H](Cc1ccccc1)NC(=O)[C@H](CCC(=O)O)NC(=O)[C@H](CCC(=O)O)NC(=O)c1ccc([125I])cc1)C(=O)O)C(=O)O [[^125I]18],Biodistribution: Blood,1 h,0.71 ± 0.31 % ID/g
same,Biodistribution: Bone,1 h,0.89 ± 0.08 % ID/g
same,Biodistribution: Heart,1 h,3.06 ± 0.48 % ID/g
same,Biodistribution: Kidney,1 h,96.21 ± 21.68 % ID/g
same,Biodistribution: Liver,1 h,3.57 ± 0.32 % ID/g
same,Biodistribution: Lung,1 h,3.16 ± 0.55 % ID/g
same,Biodistribution: Muscle,1 h,0.95 ± 0.27 % ID/g
same,Biodistribution: PC3 tumor,1 h,2.22 ± 0.58 % ID/g
same,Biodistribution: PIP tumor,1 h,13.29 ± 3.46 % ID/g
same,Biodistribution: Pancreas,1 h,1.66 ± 0.93 % ID/g
same,Biodistribution: Skin,1 h,1.48 ± 0.44 % ID/g
same,Biodistribution: Spleen,1 h,6.83 ± 0.46 % ID/g
same,Biodistribution: gland,1 h,4.03 ± 0.46 % ID/g
same,Biodistribution: thyroid,1 h,15.99 ± 1.88 % ID/g
same,Biodistribution: Bladder*,1 h,97.62 ± 20.87 % ID/g
same,Biodistribution: Stomach*,1 h,0.46 ± 0.29 % ID/g
same,Biodistribution: large intestine*,1 h,1.12 ± 0.65 % ID/g
same,Biodistribution: small intestine*,1 h,1.98 ± 0.27 % ID/g
same,PIP/blood,1 h,21.30 ± 8.28
same,PIP/muscle,1 h,16.14 ± 10.36
same,Biodistribution: Blood,4 h,0.33 ± 0.17 % ID/g
same,Biodistribution: Bone,4 h,0.45 ± 0.23 % ID/g
same,Biodistribution: Heart,4 h,1.60 ± 0.46 % ID/g
same,Biodistribution: Kidney,4 h,69.39 ± 24.24 % ID/g
same,Biodistribution: Liver,4 h,2.62 ± 1.62 % ID/g
same,Biodistribution: Lung,4 h,1.50 ± 0.65 % ID/g
same,Biodistribution: Muscle,4 h,0.69 ± 0.27 % ID/g
same,Biodistribution: PC3 tumor,4 h,1.20 ± 0.52 % ID/g
same,Biodistribution: PIP tumor,4 h,15.27 ± 5.40 % ID/g
same,Biodistribution: Pancreas,4 h,0.89 ± 0.13 % ID/g
same,Biodistribution: Skin,4 h,0.81 ± 0.37 % ID/g
same,Biodistribution: Spleen,4 h,4.37 ± 1.70 % ID/g
same,Biodistribution: gland,4 h,2.25 ± 0.80 % ID/g
same,Biodistribution: thyroid,4 h,26.99 ± 18.70 % ID/g
same,Biodistribution: Bladder*,4 h,123.13 ± 40.10 % ID/g
same,Biodistribution: Stomach*,4 h,0.72 ± 0.76 % ID/g
same,Biodistribution: large intestine*,4 h,0.74 ± 0.25 % ID/g
same,Biodistribution: small intestine*,4 h,1.11 ± 0.82 % ID/g
same,PIP/blood,4 h,50.29 ± 15.07
same,PIP/muscle,4 h,25.78 ± 14.13
same,Liver uptakes,"mouse, in vivo",low
O=C(O)CC[C@H](NC(=O)N[C@@H](CCCCNC(=O)[C@H](Cc1ccccc1)NC(=O)COc1ccc(C[C@H](NC(=O)[C@H](CCC(=O)O)NC(=O)c2ccc([125I])cc2)C(=O)O)cc1)C(=O)O)C(=O)O [[^125I]26],Biodistribution: Blood,1 h,0.46 ± 0.22 % ID/g
same,Biodistribution: Bone,1 h,0.48 ± 0.11 % ID/g
same,Biodistribution: Heart,1 h,0.73 ± 0.20 % ID/g
same,Biodistribution: Kidney,1 h,174.61 ± 30.65 % ID/g
same,Biodistribution: Liver,1 h,4.61 ± 1.72 % ID/g
same,Biodistribution: Lung,1 h,3.08 ± 0.87 % ID/g
same,Biodistribution: Muscle,1 h,1.72 ± 0.54 % ID/g
same,Biodistribution: PC3 tumor,1 h,2.39 ± 1.42 % ID/g
same,Biodistribution: PIP tumor,1 h,26.19 ± 3.46 % ID/g
same,Biodistribution: Pancreas,1 h,0.98 ± 0.42 % ID/g
same,Biodistribution: Skin,1 h,2.33 ± 0.61 % ID/g
same,Biodistribution: Spleen,1 h,21.66 ± 2.63 % ID/g
same,Biodistribution: gland,1 h,6.97 ± 1.06 % ID/g
same,Biodistribution: thyroid,1 h,13.21 ± 8.48 % ID/g
same,Biodistribution: Bladder*,1 h,14.69 ± 3.80 % ID/g
same,Biodistribution: Stomach*,1 h,0.35 ± 0.11 % ID/g
same,Biodistribution: large intestine*,1 h,1.24 ± 0.79 % ID/g
same,Biodistribution: small intestine*,1 h,1.08 ± 0.63 % ID/g
same,PIP/blood,1 h,66.04 ± 29.31
same,PIP/muscle,1 h,16.02 ± 3.85
same,Biodistribution: Blood,4 h,0.21 ± 0.21 % ID/g
same,Biodistribution: Bone,4 h,0.25 ± 0.06 % ID/g
same,Biodistribution: Heart,4 h,0.38 ± 0.23 % ID/g
same,Biodistribution: Kidney,4 h,114.69 ± 32.67 % ID/g
same,Biodistribution: Liver,4 h,4.90 ± 1.80 % ID/g
same,Biodistribution: Lung,4 h,2.08 ± 0.67 % ID/g
same,Biodistribution: Muscle,4 h,0.30 ± 0.19 % ID/g
same,Biodistribution: PC3 tumor,4 h,1.37 ± 0.45 % ID/g
same,Biodistribution: PIP tumor,4 h,14.32 ± 3.87 % ID/g
same,Biodistribution: Pancreas,4 h,0.52 ± 0.26 % ID/g
same,Biodistribution: Skin,4 h,1.67 ± 1.30 % ID/g
same,Biodistribution: Spleen,4 h,15.37 ± 3.26 % ID/g
same,Biodistribution: gland,4 h,2.03 ± 1.29 % ID/g
same,Biodistribution: thyroid,4 h,28.57 ± 10.04 % ID/g
same,Biodistribution: Bladder*,4 h,15.11 ± 4.09 % ID/g
same,Biodistribution: Stomach*,4 h,0.49 ± 0.27 % ID/g
same,Biodistribution: large intestine*,4 h,1.35 ± 0.47 % ID/g
same,Biodistribution: small intestine*,4 h,0.30 ± 0.11 % ID/g
same,PIP/blood,4 h,104.80 ± 62.05
same,PIP/muscle,4 h,60.91 ± 38.35
same,Liver uptakes,"mouse, in vivo",low
same,"Uptakes in PIP tumors, kidneys and spleen compared to [125I]17 and [125I]18","mouse, in vivo",higher uptakes
same,"Washout in PIP tumors, kidneys and spleen compared to [125I]18 and [125I]27","mouse, in vivo",significantly faster washout
